# ± gives the standard deviation of the averaged measurements.
# What was measured:
# Assay in all cases: level (log10 ratio to DMSO vehicle control); higher = higher biomarker level / cell amount than vehicle control
# [1] = compound: C=C(C)C(=O)OCCC(F)(F)C(F)(F)C(F)(F)C(F)(F)C(F)(F)C(F)(F)F [6:2 Fluorotelomer methacrylate]; conditions: in DMSO
# Procedure: (§1)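 BioMAP Diversity Plus panel of 12 human primary cell co-culture systems (3C, 4H, LPS, SAg, BT, BF4T, BE3C, CASM3C, HDF3CGF, KF3CT, MyoF, Mphg). Compounds were added 1 h before stimulation and left for 24 h (MyoF 48 h; BT 72 h for soluble read-outs or 6 d for IgG). Biomarkers were read by ELISA, cytotoxicity by SRB, PBMC viability and proliferation by Alamar Blue. Each well value was divided by the mean of 8 DMSO control wells on the same plate and log10 transformed; duplicate blinded samples were tested at 4 concentrations.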
# [2] = compound: C=CC(=O)OCC(F)(F)C(F)(F)C(F)(F)COC(=O)C=C [1H,1H,5H,5H-Perfluoro-1,5-pentanediol diacrylate]; conditions: 6700 nM; in DMSO
# Procedure: as §1
# [3] = compound: COC(=O)C(F)(F)C(F)(F)OC(F)(C(F)(F)F)C(F)(F)OC(F)=C(F)F [Methyl perfluoro(3-(1-ethenyloxypropan-2-yloxy)propanoate)]; conditions: in DMSO
# Procedure: as §1
# [4] = compound: FC(F)(F)C(F)(F)C(F)(F)C(F)(F)C(F)(F)C(F)(F)C(F)(F)I [1-Iodopentadecafluoroheptane]; conditions: in DMSO
# Procedure: as §1
# [5] = compound: FC(F)(F)C(F)(F)C(F)(F)C(F)(F)C(F)(F)C(F)(F)CC1CO1 [3-(Perfluorohexyl)-1,2-epoxypropane]; conditions: in DMSO
# Procedure: as §1
# [6] = compound: FC(F)(F)C(F)(F)C(F)(F)CC1CO1 [1H,1H-Heptafluorobutyl epoxide]; conditions: in DMSO
# Procedure: as §1
# [7] = compound: FC(F)(F)C(F)(F)C(F)(F)CI [Heptafluorobutyl iodide]; conditions: in DMSO
# Procedure: as §1
# [8] = compound: FC(F)(F)C(F)(F)CNCC(F)(F)C(F)(F)F [Bis(1H,1H-perfluoropropyl)amine]; conditions: in DMSO
# Procedure: as §1
# [9] = compound: NC(=O)C(F)(F)C(F)(F)C(F)(F)C(F)(F)C(N)=O [Octafluoroadipamide]; conditions: in DMSO
# Procedure: as §1
# [10] = compound: NC(=O)C(F)(F)C(F)(F)C(F)(F)C(F)(F)F [Nonafluoropentanamide]; conditions: in DMSO
# Procedure: as §1
# [11] = compound: NC(=O)C(F)(F)C(F)(F)C(F)(F)C(F)F; conditions: in DMSO
# Procedure: as §1
# [12] = compound: NS(=O)(=O)C(F)(F)C(F)(F)C(F)(F)C(F)(F)C(F)(F)C(F)(F)F [Perfluorohexanesulfonamide]; conditions: in DMSO
# Procedure: as §1
# [13] = compound: O=C(O)C(F)(F)C(F)(F)C(F)(F)C(F)(F)C(F)(F)C(F)(F)C(F)(F)C(F)(F)C(F)(F)C(F)F [11-H-Perfluoroundecanoic acid]; conditions: in DMSO
# Procedure: as §1
# [14] = compound: O=C(O)C=CC(F)(C(F)(F)F)C(F)(F)F [3-(Perfluoroisopropyl)-2-propenoic acid]; conditions: in DMSO
# Procedure: as §1
# [15] = compound: O=S(=O)(Cl)C(F)(F)C(F)(F)C(F)(F)C(F)(F)C(F)(F)C(F)(F)C(F)(F)C(F)(F)F [Perfluoro-1-octanesulfonyl chloride]; conditions: in DMSO
# Procedure: as §1
# [16] = compound: O=S(=O)(F)C(F)(F)C(F)(F)C(F)(F)C(F)(F)C(F)(F)C(F)(F)C(F)(F)C(F)(F)F [Perfluorooctanesulfonyl fluoride]; conditions: in DMSO
# Procedure: as §1
# [17] = compound: O=S(=O)(O)C(F)(F)C(F)(F)C(F)(F)C(F)(F)C(F)(F)C(F)(F)C(F)(F)C(F)(F)C(F)(F)C(F)(F)F [Sodium perfluorodecanesulfonate]; conditions: in DMSO
# Procedure: as §1
# [18] = compound: O=S(=O)(O)CCC(F)(F)C(F)(F)C(F)(F)C(F)(F)C(F)(F)C(F)(F)F [6:2 Fluorotelomer sulfonic acid]; conditions: in DMSO
# Procedure: as §1
# [19] = compound: OCC(F)(F)C(F)(F)C(F)(F)CO [Hexafluoroamylene glycol]; conditions: in DMSO
# Procedure: as §1
test system,measurement,setting,value
3C:CXCL9/MIG,level (log10),[1]; 6700 nM,-0.001 ± 0.0014
same,level (log10),[1]; 20000 nM,0.0025 ± 0.012
same,level (log10),[1]; 60000 nM,0.0105 ± 0.023
same,level (log10),[2],-0.017 ± 0.0085
same,level (log10),[3]; 6700 nM,-0.0025 ± 0.012
same,level (log10),[3]; 20000 nM,-0.0005 ± 0.00071
same,level (log10),[4]; 6700 nM,0.001 ± 0.0099
same,level (log10),[4]; 20000 nM,-0.002 ± 0.0042
same,level (log10),[5]; 6700 nM,0.0065 ± 0.0064
same,level (log10),[5]; 20000 nM,-0.011 ± 0.0071
same,level (log10),[5]; 60000 nM,0.013 ± 0.0099
same,level (log10),[6]; 6700 nM,-0.005 ± 0.0071
same,level (log10),[6]; 20000 nM,-0.0135 ± 0.0064
same,level (log10),[6]; 60000 nM,-0.0035 ± 0.022
same,level (log10),[7]; 6700 nM,-0.01 ± 0.0028
same,level (log10),[7]; 20000 nM,-0.0095 ± 0.0021
same,level (log10),[7]; 60000 nM,0.0025 ± 0.0035
same,level (log10),[8]; 6700 nM,0.0005 ± 0.013
same,level (log10),[8]; 20000 nM,0.003 ± 0.0071
same,level (log10),[8]; 60000 nM,0.016 ± 0.025
same,level (log10),[9]; 6700 nM,-0.002 ± 0.0028
same,level (log10),[9]; 20000 nM,0 ± 0.0057
same,level (log10),[9]; 60000 nM,0.024 ± 0.011
same,level (log10),[10]; 6700 nM,-0.0005 ± 0.0021
same,level (log10),[10]; 20000 nM,-0.0005 ± 0.021
same,level (log10),[10]; 60000 nM,0.0065 ± 0.012
same,level (log10),[11]; 6700 nM,-0.0095 ± 0.011
same,level (log10),[11]; 20000 nM,-0.012 ± 0.0014
same,level (log10),[11]; 60000 nM,-0.0045 ± 0.0021
same,level (log10),[12]; 6700 nM,-0.0165 ± 0.005
same,level (log10),[12]; 20000 nM,-0.0055 ± 0.0021
same,level (log10),[12]; 60000 nM,0.009 ± 0.0071
same,level (log10),[13]; 6700 nM,-0.005 ± 0.0085
same,level (log10),[13]; 20000 nM,-0.002
same,level (log10),[14]; 6700 nM,0.004 ± 0.0071
same,level (log10),[14]; 20000 nM,-0.0105 ± 0.0064
same,level (log10),[14]; 60000 nM,0.0045 ± 0.016
same,level (log10),[15]; 6700 nM,-0.011 ± 0.0057
same,level (log10),[15]; 20000 nM,-0.003 ± 0.0028
same,level (log10),[15]; 60000 nM,0.021 ± 0.018
same,level (log10),[16]; 6700 nM,-0.008 ± 0.0099
same,level (log10),[16]; 20000 nM,-0.0015 ± 0.00071
same,level (log10),[16]; 60000 nM,0.0055 ± 0.012
same,level (log10),[17]; 1500 nM,-0.005 ± 0.0099
same,level (log10),[17]; 4400 nM,-0.018 ± 0.011
same,level (log10),[17]; 13000 nM,-0.0025 ± 0.0064
same,level (log10),[17]; 40000 nM,0.001 ± 0.0057
same,level (log10),[18]; 6700 nM,-0.0065 ± 0.0021
same,level (log10),[18]; 20000 nM,-0.009 ± 0.017
same,level (log10),[18]; 60000 nM,-0.006 ± 0.0042
same,level (log10),[19]; 6700 nM,-0.006 ± 0.0071
same,level (log10),[19]; 20000 nM,-0.01 ± 0.0057
same,level (log10),[19]; 60000 nM,0.007
4H:CCL2/MCP-1,level (log10),[1]; 6700 nM,-0.009 ± 0.0014
same,level (log10),[1]; 20000 nM,0.007 ± 0.0085
same,level (log10),[1]; 60000 nM,-0.006 ± 0.0057
same,level (log10),[2],-0.058 ± 0.0028
same,level (log10),[3]; 6700 nM,-0.0055 ± 0.019
same,level (log10),[3]; 20000 nM,0.016 ± 0.064
same,level (log10),[4]; 6700 nM,-0.015 ± 0.033
same,level (log10),[4]; 20000 nM,0.0095 ± 0.037
same,level (log10),[5]; 6700 nM,0.03 ± 0.0099
same,level (log10),[5]; 20000 nM,-0.0175 ± 0.0064
same,level (log10),[5]; 60000 nM,0.0125 ± 0.019
same,level (log10),[6]; 6700 nM,-0.033 ± 0.013
same,level (log10),[6]; 20000 nM,-0.018 ± 0.025
same,level (log10),[6]; 60000 nM,0.025 ± 0.042
same,level (log10),[7]; 6700 nM,-0.007 ± 0.027
same,level (log10),[7]; 20000 nM,-0.0215 ± 0.011
same,level (log10),[7]; 60000 nM,-0.0265 ± 0.021
same,level (log10),[8]; 6700 nM,-0.0345 ± 0.012
same,level (log10),[8]; 20000 nM,-0.035 ± 0.0042
same,level (log10),[8]; 60000 nM,-0.0105 ± 0.026
same,level (log10),[9]; 6700 nM,-0.013 ± 0.0014
same,level (log10),[9]; 20000 nM,-0.023 ± 0.0085
same,level (log10),[9]; 60000 nM,-0.0005 ± 0.019
same,level (log10),[10]; 6700 nM,-0.024 ± 0.017
same,level (log10),[10]; 20000 nM,-0.017
same,level (log10),[10]; 60000 nM,-0.004 ± 0.013
same,level (log10),[11]; 6700 nM,-0.0155 ± 0.032
same,level (log10),[11]; 20000 nM,-0.039 ± 0.031
same,level (log10),[11]; 60000 nM,0.029 ± 0.04
same,level (log10),[12]; 6700 nM,0.002 ± 0.027
same,level (log10),[12]; 20000 nM,-0.033 ± 0.0028
same,level (log10),[12]; 60000 nM,-0.136 ± 0.031
same,level (log10),[13]; 6700 nM,-0.0625 ± 0.021
same,level (log10),[13]; 20000 nM,-0.0615 ± 0.013
same,level (log10),[14]; 6700 nM,0.008 ± 0.025
same,level (log10),[14]; 20000 nM,-0.0105 ± 0.022
same,level (log10),[14]; 60000 nM,0.0005 ± 0.0064
same,level (log10),[15]; 6700 nM,-0.0125 ± 0.021
same,level (log10),[15]; 20000 nM,-0.0475 ± 0.0035
same,level (log10),[15]; 60000 nM,-0.11 ± 0.12
same,level (log10),[16]; 6700 nM,0
same,level (log10),[16]; 20000 nM,-0.0195 ± 0.0035
same,level (log10),[16]; 60000 nM,-0.0005 ± 0.023
same,level (log10),[17]; 1500 nM,-0.0285 ± 0.0078
same,level (log10),[17]; 4400 nM,-0.045 ± 0.0057
same,level (log10),[17]; 13000 nM,-0.0725 ± 0.028
same,level (log10),[17]; 40000 nM,-0.05 ± 0.0057
same,level (log10),[18]; 6700 nM,-0.0135 ± 0.056
same,level (log10),[18]; 20000 nM,0.0065 ± 0.029
same,level (log10),[18]; 60000 nM,-0.02 ± 0.011
same,level (log10),[19]; 6700 nM,0.0255 ± 0.022
same,level (log10),[19]; 20000 nM,-0.02 ± 0.027
same,level (log10),[19]; 60000 nM,0.009 ± 0.0099

# From the supplement of paper PMC10331698
